Data reported in the NIST ThermoML archive (doi:10.1021/je101178u).
Where “and” joins values, the source holds several entries; their conditions need not be identical. Identical values can stand only once.

Settings: Fluid (supercritical or subcritical phases); for mass density: Buoyancy - hydrostatic balance with magnetic suspension - one sinker; for viscosity: vibrating wire

CC [ethane]
Settings	mass density	viscosity
293.15 K, 64.37 kPa	0.79811 kg/m3	0.009075 mPa·s and 0.009074 mPa·s
293.15 K, 80.37 kPa	0.99778 kg/m3	0.009076 mPa·s
293.15 K, 80.42 kPa	0.99851 kg/m3	0.009075 mPa·s
293.15 K, 80.48 kPa	0.99923 kg/m3	0.009073 mPa·s
293.15 K, 160.1 kPa	2.0005 kg/m3	0.009083 mPa·s and 0.009082 mPa·s
293.15 K, 160.16 kPa	2.0012 kg/m3	0.009082 mPa·s
293.15 K, 315.97 kPa	3.9991 kg/m3	0.009102 mPa·s
293.15 K, 316.05 kPa	4.0002 kg/m3	0.009098 mPa·s and 0.009099 mPa·s
293.15 K, 467.91 kPa	5.9992 kg/m3	0.009118 mPa·s
293.15 K, 467.96 kPa	5.9999 kg/m3	0.009119 mPa·s
293.15 K, 468.01 kPa	6.0006 kg/m3	0.009118 mPa·s
293.15 K, 615.93 kPa	8.0004 kg/m3	0.009139 mPa·s and 0.009137 mPa·s
293.15 K, 616.03 kPa	8.0018 kg/m3	0.009137 mPa·s
293.15 K, 759.69 kPa	9.9972 kg/m3	0.009162 mPa·s and 0.009165 mPa·s
293.15 K, 889.73 kPa	11.852 kg/m3	0.009183 mPa·s and 0.009184 mPa·s
293.15 K, 889.87 kPa	11.854 kg/m3	0.009183 mPa·s
293.15 K, 1036.2 kPa	14.001 kg/m3	0.009212 mPa·s and 0.009213 mPa·s
293.15 K, 1036.3 kPa	14.002 kg/m3	0.009213 mPa·s
293.15 K, 1167.2 kPa	15.979 kg/m3	0.009246 mPa·s
293.15 K, 1167.3 kPa	15.98 kg/m3 and 15.981 kg/m3	0.009243 mPa·s
293.15 K, 1293.6 kPa	17.943 kg/m3	0.009274 mPa·s
293.15 K, 1293.8 kPa	17.946 kg/m3	0.009275 mPa·s
293.15 K, 1420.8 kPa	19.979 kg/m3	0.009305 mPa·s and 0.009308 mPa·s
293.15 K, 1421 kPa	19.983 kg/m3	0.00931 mPa·s
293.15 K, 1992.4 kPa	30.002 kg/m3	0.009506 mPa·s
293.15 K, 1992.5 kPa	30.004 kg/m3	0.009506 mPa·s
293.15 K, 1992.6 kPa	30.006 kg/m3	0.009505 mPa·s
293.15 K, 2477.2 kPa	40.017 kg/m3	0.009749 mPa·s
293.15 K, 2477.4 kPa	40.022 kg/m3	0.009748 mPa·s
293.15 K, 2477.6 kPa	40.026 kg/m3	0.009748 mPa·s
293.15 K, 2879.7 kPa	49.983 kg/m3	0.01003 mPa·s
293.15 K, 2879.9 kPa	49.988 kg/m3	0.01003 mPa·s
293.15 K, 3212.1 kPa	60.071 kg/m3	0.01036 mPa·s
293.15 K, 3212.2 kPa	60.073 kg/m3	0.01036 mPa·s
293.15 K, 3212.3 kPa	60.079 kg/m3	0.01036 mPa·s
293.15 K, 3471.9 kPa	70.014 kg/m3	0.01073 mPa·s
293.15 K, 3472 kPa	70.02 kg/m3	0.01073 mPa·s
293.15 K, 3472.2 kPa	70.027 kg/m3	0.01073 mPa·s
293.15 K, 3577.6 kPa	74.947 kg/m3	0.01093 mPa·s
293.15 K, 3577.8 kPa	74.957 kg/m3	0.01092 mPa·s
307.15 K, 92.55 kPa	1.0967 kg/m3	0.009492 mPa·s
307.15 K, 92.62 kPa	1.0975 kg/m3	0.009489 mPa·s
307.15 K, 97.81 kPa	1.1594 kg/m3	0.009507 mPa·s and 0.009508 mPa·s
307.15 K, 160.18 kPa	1.907 kg/m3	0.00951 mPa·s and 0.009508 mPa·s
307.15 K, 166.71 kPa	1.9856 kg/m3	0.009531 mPa·s
307.15 K, 166.77 kPa	1.9863 kg/m3	0.009529 mPa·s
307.15 K, 327.38 kPa	3.9439 kg/m3	0.009566 mPa·s
307.15 K, 332.45 kPa	4.0065 kg/m3	0.009542 mPa·s and 0.009543 mPa·s
307.15 K, 493.91 kPa	6.0228 kg/m3	0.009573 mPa·s
307.15 K, 493.97 kPa	6.0235 kg/m3	0.009572 mPa·s
307.15 K, 649.95 kPa	8.0188 kg/m3	0.009604 mPa·s
307.15 K, 650.01 kPa	8.0195 kg/m3	0.009604 mPa·s
307.15 K, 788.48 kPa	9.8322 kg/m3	0.009663 mPa·s
307.15 K, 788.7 kPa	9.8351 kg/m3	0.009665 mPa·s
307.15 K, 800.35 kPa	9.9895 kg/m3	0.009635 mPa·s
307.15 K, 800.41 kPa	9.9903 kg/m3	0.009639 mPa·s and 0.009636 mPa·s
307.15 K, 959.13 kPa	12.123 kg/m3	0.009675 mPa·s
307.15 K, 959.2 kPa	12.124 kg/m3	0.009674 mPa·s
307.15 K, 1094.4 kPa	13.987 kg/m3	0.009709 mPa·s
307.15 K, 1094.5 kPa	13.988 kg/m3	0.00971 mPa·s
307.15 K, 1233.8 kPa	15.953 kg/m3	0.009746 mPa·s
307.15 K, 1233.9 kPa	15.955 kg/m3	0.009746 mPa·s
307.15 K, 1343.4 kPa	17.536 kg/m3	0.009778 mPa·s
307.15 K, 1469.3 kPa	19.394 kg/m3	0.009855 mPa·s
307.15 K, 1469.5 kPa	19.396 kg/m3	0.009856 mPa·s
307.15 K, 1502.4 kPa	19.889 kg/m3	0.00983 mPa·s and 0.009828 mPa·s
307.15 K, 2134.4 kPa	30.049 kg/m3	0.01007 mPa·s
307.15 K, 2134.5 kPa	30.051 kg/m3	0.01006 mPa·s
307.15 K, 2653.6 kPa	39.629 kg/m3	0.01038 mPa·s
307.15 K, 2653.7 kPa	39.631 kg/m3	0.01038 mPa·s
307.15 K, 2674.2 kPa	40.039 kg/m3 and 40.038 kg/m3	0.01034 mPa·s
307.15 K, 2674.3 kPa	40.04 kg/m3	0.01034 mPa·s
307.15 K, 3138.1 kPa	50.006 kg/m3	0.01066 mPa·s
307.15 K, 3138.2 kPa	50.008 kg/m3	0.01066 mPa·s
307.15 K, 3138.4 kPa	50.012 kg/m3	0.01066 mPa·s
307.15 K, 3539.6 kPa	60.147 kg/m3	0.01103 mPa·s
307.15 K, 3539.8 kPa	60.154 kg/m3	0.01103 mPa·s
307.15 K, 3815.6 kPa	68.316 kg/m3	0.01142 mPa·s
307.15 K, 3821.7 kPa	68.511 kg/m3	0.01143 mPa·s
307.15 K, 3889 kPa	70.711 kg/m3	0.01145 mPa·s
307.15 K, 3892.4 kPa	70.823 kg/m3	0.01146 mPa·s
307.15 K, 4150.5 kPa	80.267 kg/m3	0.01188 mPa·s
307.15 K, 4151.6 kPa	80.309 kg/m3	0.01189 mPa·s
307.15 K, 4152 kPa	80.328 kg/m3	0.01189 mPa·s
307.15 K, 4152.4 kPa	80.342 kg/m3	0.01189 mPa·s
307.15 K, 4328.6 kPa	88.031 kg/m3	0.01226 mPa·s
307.15 K, 4329.5 kPa	88.072 kg/m3	0.01226 mPa·s
307.15 K, 4330.1 kPa	88.099 kg/m3	0.01227 mPa·s
307.15 K, 4330.4 kPa	88.116 kg/m3	0.01226 mPa·s
307.15 K, 4331.5 kPa	88.167 kg/m3	0.01226 mPa·s
307.15 K, 4514.6 kPa	97.86 kg/m3	0.01277 mPa·s
307.15 K, 4516.2 kPa	97.954 kg/m3	0.01278 mPa·s
307.15 K, 4517.4 kPa	98.024 kg/m3	0.01279 mPa·s
307.15 K, 4518.3 kPa	98.079 kg/m3	0.01279 mPa·s
307.15 K, 4519.2 kPa	98.129 kg/m3	0.01279 mPa·s
307.15 K, 4557.7 kPa	100.499 kg/m3	0.01302 mPa·s
307.15 K, 4558.1 kPa	100.521 kg/m3	0.01302 mPa·s
307.15 K, 4736.3 kPa	113.82 kg/m3	0.01371 mPa·s
307.15 K, 4736.7 kPa	113.852 kg/m3	0.01371 mPa·s
307.15 K, 4939.2 kPa	140.104 kg/m3	0.01552 mPa·s
307.15 K, 4939.3 kPa	140.112 kg/m3	0.01552 mPa·s
307.15 K, 5008.9 kPa	160.457 kg/m3 and 160.473 kg/m3	0.01729 mPa·s
307.15 K, 5019.4 kPa	165.641 kg/m3 and 165.625 kg/m3	0.01766 mPa·s
307.15 K, 5019.5 kPa	165.654 kg/m3	0.01767 mPa·s
307.15 K, 5042.9 kPa	182.964 kg/m3	0.01932 mPa·s
307.15 K, 5043 kPa	183.065 kg/m3 and 183.021 kg/m3	0.01933 mPa·s and 0.01932 mPa·s
307.15 K, 5050.1 kPa	191.037 kg/m3	0.02022 mPa·s
307.15 K, 5050.2 kPa	191.169 kg/m3	0.02023 mPa·s
307.15 K, 5051 kPa	192.154 kg/m3 and 192.131 kg/m3	0.02026 mPa·s
307.15 K, 5051.1 kPa	192.228 kg/m3 and 192.185 kg/m3	0.02028 mPa·s
307.15 K, 5058.7 kPa	202.521 kg/m3 and 202.456 kg/m3	0.02133 mPa·s and 0.02132 mPa·s
307.15 K, 5058.8 kPa	202.654 kg/m3 and 202.599 kg/m3 and 202.583 kg/m3	0.02137 mPa·s and 0.02136 mPa·s and 0.02133 mPa·s
307.15 K, 5060.1 kPa	204.501 kg/m3	0.02168 mPa·s
307.15 K, 5060.2 kPa	204.534 kg/m3 and 204.598 kg/m3	0.02168 mPa·s
307.15 K, 5060.3 kPa	204.743 kg/m3 and 204.709 kg/m3	0.02159 mPa·s and 0.02158 mPa·s
307.15 K, 5060.4 kPa	204.805 kg/m3	0.02159 mPa·s
307.15 K, 5062 kPa	207.173 kg/m3	0.02199 mPa·s
307.15 K, 5062.1 kPa	207.31 kg/m3	0.02199 mPa·s
307.15 K, 5062.2 kPa	207.441 kg/m3	0.022 mPa·s
307.15 K, 5064.1 kPa	209.963 kg/m3 and 209.982 kg/m3 and 209.961 kg/m3	0.02215 mPa·s and 0.02216 mPa·s
307.15 K, 5064.2 kPa	210.139 kg/m3 and 210.11 kg/m3	0.02219 mPa·s
307.15 K, 5065.4 kPa	211.657 kg/m3 and 211.736 kg/m3	0.02255 mPa·s
307.15 K, 5065.5 kPa	211.805 kg/m3	0.02255 mPa·s
307.15 K, 5105 kPa	242.924 kg/m3 and 242.96 kg/m3	0.02579 mPa·s
307.15 K, 5105.1 kPa	243 kg/m3	0.02579 mPa·s
307.15 K, 5105.2 kPa	243.012 kg/m3	0.0258 mPa·s
307.15 K, 5160.6 kPa	259.321 kg/m3	0.02781 mPa·s
307.15 K, 5160.9 kPa	259.389 kg/m3	0.02781 mPa·s
307.15 K, 5161 kPa	259.401 kg/m3 and 259.396 kg/m3	0.02781 mPa·s and 0.0278 mPa·s
307.15 K, 5187.1 kPa	264.206 kg/m3	0.02852 mPa·s
307.15 K, 5187.4 kPa	264.252 kg/m3	0.02852 mPa·s
307.15 K, 5187.6 kPa	264.291 kg/m3	0.02852 mPa·s
307.15 K, 5348.1 kPa	282.102 kg/m3	–
